{"source": "patent EP0515141A1", "about": "“Novel process for the preparation of 8A-aza-8A-homoerythromycin cyclic lactams” (MERCK & CO. INC., priority 1991, dated 1992)", "assay_in_all_cases": "liquid turbidimetric microtiter MIC assay", "format_in_all_cases": "cell-based", "key": {"[1]": {"system": "Streptococcus pyogenes MB 5406", "settings": "MB5406, brain heart infusion broth", "description": "(§1) The antibacterial activities of compound (III) against a panel of aerobic Gram positive and negative bacteria is shown in the following Table. The assay employs a liquid turbidimetric microtiter method for the determination of the minimum inhibitory concentration (MIC) in brain heart infusion broth. […] The MIC is generally not an absolute value but rather a concentration ranged that falls within a two-fold dilution limit. Generally twelve two-fold dilutions of the test compound are employed with the initial concentration set at 128 mcg/ml."}, "[2]": {"system": "Enterococcus faecium MB 5416", "settings": "MB5416, brain heart infusion broth", "description": "as §1"}, "[3]": {"system": "Klebsiella pneumoniae MB 4005", "settings": "MB4005, brain heart infusion broth", "description": "as §1"}, "[4]": {"system": "Streptococcus pyogenes MB 2874", "settings": "MB2874, brain heart infusion broth", "description": "as §1"}, "[5]": {"system": "Enterococcus faecalis MB 5407", "settings": "MB5407, brain heart infusion broth", "description": "as §1"}, "[6]": {"system": "Staphylococcus aureus MB 2865", "settings": "MB2865, brain heart infusion broth", "description": "as §1"}, "Escherichia coli MB 2884": {"system": "Escherichia coli MB 2884", "settings": "MB2884, brain heart infusion broth", "description": "as §1"}, "[7]": {"system": "Pseudomonas stutzeri MB 1231", "settings": "Stutzerimonas stutzeri, MB1231, brain heart infusion broth", "description": "as §1"}, "[8]": {"system": "Streptococcus agalactiae CL 1343", "settings": "CL1343, brain heart infusion broth", "description": "as §1"}, "[9]": {"system": "Streptococcus pneumoniae CL 2883", "settings": "CL2883, brain heart infusion broth", "description": "as §1"}, "[10]": {"system": "Staphylococcus haemolyticus MB 5412", "settings": "MB5412, brain heart infusion broth", "description": "as §1"}, "Escherichia coli MB 4926": {"system": "Escherichia coli MB 4926", "settings": "MB4926, brain heart infusion broth", "description": "as §1"}, "[11]": {"system": "Staphylococcus epidermidis MB 5414", "settings": "MB5414, brain heart infusion broth", "description": "as §1"}, "[12]": {"system": "Yersinia enterocoltica CL 1598", "settings": "CL1598, brain heart infusion broth", "description": "as §1"}, "[13]": {"system": "Steptococcus viridans CL 2943", "settings": "brain heart infusion broth", "description": "as §1"}}, "data": [{"smiles": "CC[C@H]1OC(=O)[C@H](C)[C@@H](O[C@H]2C[C@@](C)(OC)[C@@H](O)[C@H](C)O2)[C@H](C)[C@@H](O[C@@H]2O[C@H](C)C[C@H](N(C)C)[C@H]2O)[C@](C)(O)C[C@@H](C)NC(=O)[C@H](C)[C@@H](O)[C@]1(C)O", "note": "[(III), 8a-aza-8a-homoerythromycin A]", "values": [{"measurement": "MIC", "setting": "[1]", "result": 128, "unit": "µg/mL"}, {"measurement": "MIC", "setting": "[2]", "result": "≤ 0.06", "unit": "µg/mL"}, {"measurement": "MIC", "setting": "[3]", "result": 64, "unit": "µg/mL"}, {"measurement": "MIC", "setting": "[4]", "result": "≤ 0.06", "unit": "µg/mL"}, {"measurement": "MIC", "setting": "[5]", "result": 16, "unit": "µg/mL"}, {"measurement": "MIC", "setting": "[6]", "result": 1, "unit": "µg/mL"}, {"measurement": "MIC", "setting": "Escherichia coli MB 2884", "result": 32, "unit": "µg/mL"}, {"measurement": "MIC", "setting": "[7]", "result": 0.12, "unit": "µg/mL"}, {"measurement": "MIC", "setting": "[8]", "result": 0.25, "unit": "µg/mL"}, {"measurement": "MIC", "setting": "[9]", "result": "≤ 0.06", "unit": "µg/mL"}, {"measurement": "MIC", "setting": "[10]", "result": 2, "unit": "µg/mL"}, {"measurement": "MIC", "setting": "Escherichia coli MB 4926", "result": 4, "unit": "µg/mL"}, {"measurement": "MIC", "setting": "[11]", "result": 2, "unit": "µg/mL"}, {"measurement": "MIC", "setting": "[12]", "result": 64, "unit": "µg/mL"}, {"measurement": "MIC", "setting": "[13]", "result": 4, "unit": "µg/mL"}]}]}
